Experimental data as given in PMC9944328 (Nature Communications, 2023).
Read-outs that look alike come from different tables or passages of the source.

Test system: SSTR2 mutants
Assay: SSTRs Gi-mediated cAMP inhibition, GloSensor, HEK293, 5 μM forskolin, 15 min room temperature (SSTR2 mutants)
Type: cell-based, human
Set-up: Best-fit Bottom, cAMP inhibition / Best-fit Top, cAMP inhibition / Span, cAMP inhibition / Bottom (best-fit value) / Top (best-fit value) / Span (best-fit value) / Span (best-fit) / Bottom (best-fit) / Top (best-fit) / Best-fit Bottom / Best-fit Top / Best-fit Span / Top / Span: scale not given here
Method: The levels of the intracellular 3′, 5′-cyclic AMP (cAMP) were measured by the GloSensor cAMP assay (Promega) as described in the previous studies[28],[41] which has been widely used. The human full-length SSTRs and mutants were cloned into the pcDNA3.1+ vector with a HA signal sequence followed by a Flag tag at the N-terminus. HEK293 cells (ATCC, CRL-1573) were seeded into 6-well microplates at a density of 1.0 × 10^6 cells/well and cultured for 24 h at 37 °C with 5% CO2. Cells were then co-transfected with SSTR wild-type or mutants and GloSensor plasmids. After 24 h of transfection, the cells were dissociated with TrypLE™ Express Enzyme (1X) (Thermo Fisher Scientific) and collected by centrifugation at 500 × g for 5 min. Then the collected cells were suspended in Hank’s balanced salt solution [HBSS (Thermo Fisher Scientific)] supplemented with […] (YEASEN), and then the suspension cells were seeded into 96-well plates with 90 μl/well. After incubating at room temperature for 40 min, 5 μM forskolin and ligands diluted in HBSS were added to each well and the plates were incubated at room temperature for 15 min. […] were measured using the Synergy H1 microplate reader (BioTek) and the data presented are means of at least three independent experiments.

SMILES: C[C@@H](O)[C@@H]1NC(=O)[C@H](CCCCN)NC(=O)[C@@H](Cc2c[nH]c3ccccc23)NC(=O)[C@H](Cc2ccccc2)NC(=O)[C@@H](NC(=O)[C@H](N)Cc2ccccc2)CSSC[C@@H](C(=O)N[C@H](CO)[C@@H](C)O)NC1=O [octreotide]
- Best-fit Bottom (D295A-1): -10.23
- Best-fit Span (D295A-1): 99.42
- Best-fit Top (D295A-1): 89.19
- LogEC50 (D295A-1): -8.381
- EC50 (D295A-1, read-out: EC50): 4.16 nM
- Best-fit Bottom (D295A-2): 1.886
- Best-fit Span (D295A-2): 96.17
- Best-fit Top (D295A-2): 98.06
- LogEC50 (D295A-2): -8.514
- EC50 (D295A-2, read-out: EC50): 3.06 nM
- Best-fit Span (D295A-3): 116.5
- Best-fit Top (D295A-3): 121.2
- LogEC50 (D295A-3): -8.224
- EC50 (D295A-3, read-out: EC50): 5.97 nM
- Span (best-fit) (F208A-1): 78.86
- Span (best-fit) (F208A-2): 58.27
- Bottom (best-fit) (F265A-1): 0.9849
- LogEC50 (best-fit) (F265A-1): -7.854
- Span (best-fit) (F265A-1): 101.1
- Top (best-fit) (F265A-1): 102.1
- EC50 (F265A-1, read-out: EC50 (best-fit)): 14 nM
- Bottom (best-fit) (F265A-2): 21.57
- LogEC50 (best-fit) (F265A-2): -8.682
- Span (best-fit) (F265A-2): 69.47
- Top (best-fit) (F265A-2): 91.04
- EC50 (F265A-2, read-out: EC50 (best-fit)): 2.08 nM
- Bottom (best-fit) (F265A-3): 0.9849
- LogEC50 (best-fit) (F265A-3): -7.854
- Span (best-fit) (F265A-3): 101.1
- Top (best-fit) (F265A-3): 102.1
- Bottom (best-fit) (F272A-1): 2.117
- LogEC50 (best-fit) (F272A-1): -8.522
- Span (best-fit) (F272A-1): 53.6
- Top (best-fit) (F272A-1): 55.72
- EC50 (F272A-1, read-out: EC50 (best-fit)): 3 nM
- Bottom (best-fit) (F272A-2): 11.48
- LogEC50 (best-fit) (F272A-2): -6.317
- Span (best-fit) (F272A-2): 89.48
- Top (best-fit) (F272A-2): 101
- EC50 (F272A-2, read-out: EC50 (best-fit)): 482 nM
- Bottom (best-fit) (F272A-3): 14.59
- LogEC50 (best-fit) (F272A-3): -6.317
- Span (best-fit) (F272A-3): 113.7
- Top (best-fit) (F272A-3): 128.3
- Best-fit Bottom (F294A-1): 3.53
- Best-fit Span (F294A-1): 87.88
- Best-fit Top (F294A-1): 91.41
- LogEC50 (F294A-1): -6.677
- EC50 (F294A-1, read-out: EC50): 211 nM
- Best-fit Bottom (F294A-2): 6.308
- Best-fit Span (F294A-2): 82.91
- Best-fit Top (F294A-2): 89.22
- LogEC50 (F294A-2): -6.828
- EC50 (F294A-2, read-out: EC50): 149 nM
- Best-fit Bottom (F294A-3): 4.16
- Best-fit Span (F294A-3): 103.6
- Best-fit Top (F294A-3): 107.7
- LogEC50 (F294A-3): -6.677
- Emax (Gi signaling, I130A, earlier manuscript version quoted by reviewer, superseded): 91%
- Emax (Gi signaling, Q102A, earlier manuscript version quoted by reviewer, superseded): 109%
- Emax (Gi signaling, SSTR2 D122(3.32)A, detected at 10 μM, n=3): 12.04±1.83 %WT
- Emax (Gi signaling, SSTR2 D295(7.36)A, n=3): 102.80±9.54 %WT
- EC50 (Gi signaling, SSTR2 D295(7.36)A, n=3, read-out: EC50): 4.4 ± 8.48 nM
- Emax (Gi signaling, SSTR2 F127(3.37)A, n=3): 108.70±0.91 %WT
- EC50 (Gi signaling, SSTR2 F127(3.37)A, n=3, read-out: EC50): 1.93 nM
- Emax (Gi signaling, SSTR2 F208(5.38)A, n=3): 96.46±2.20 %WT
- EC50 (Gi signaling, SSTR2 F208(5.38)A, n=3, read-out: EC50): 6.42 ± 2.37 nM
- Emax (Gi signaling, SSTR2 F265(6.44)A, n=3): 99.81±4.55 %WT
- EC50 (Gi signaling, SSTR2 F265(6.44)A, n=3, read-out: EC50): 12.3 ± 5.46 nM
- Emax (Gi signaling, SSTR2 F272A, n=3): 95.01±21.17 %WT
- EC50 (Gi signaling, SSTR2 F272A, n=3, read-out: EC50): 322.3 ± 1.6 nM
- Emax (Gi signaling, SSTR2 F294(7.35)A, n=3): 96.11±5.83 %WT
- EC50 (Gi signaling, SSTR2 F294(7.35)A, n=3, read-out: EC50): 190 ± 2.07 nM
- Emax (Gi signaling, SSTR2 I130(3.40)A, n=3): 101.10±5.08 %WT
- EC50 (Gi signaling, SSTR2 I130(3.40)A, n=3, read-out: EC50): 11.6 ± 4.99 nM
- Emax (Gi signaling, SSTR2 I195(45.52)A, n=3): 100.40±3.58 %WT
- EC50 (Gi signaling, SSTR2 I195(45.52)A, n=3, read-out: EC50): 6.58 ± 1.1 nM
- Emax (Gi signaling, SSTR2 I284ECL3A, n=3): 97.53±14.28 %WT
- EC50 (Gi signaling, SSTR2 I284ECL3A, n=3, read-out: EC50): 1.91 ± 4.66 nM
- Emax (Gi signaling, SSTR2 K291(7.32)A, n=3): 89.41±10.26 %WT
- EC50 (Gi signaling, SSTR2 K291(7.32)A, n=3, read-out: EC50): 5.46 ± 1.06 nM
- Emax (Gi signaling, SSTR2 L99(2.60)A, n=3): 92.36±6.12 %WT
- EC50 (Gi signaling, SSTR2 L99(2.60)A, n=3, read-out: EC50): 1.25 nM
- Emax (Gi signaling, SSTR2 L290(7.31)A, n=3): 103.50±7.16 %WT
- Emax (Gi signaling, SSTR2 N276(6.55)A, n=3): 107.20±5.70 %WT
- EC50 (Gi signaling, SSTR2 N276(6.55)A, n=3, read-out: EC50): 35.1 ± 8.45 nM
- Emax (Gi signaling, SSTR2 P220(5.50)A, n=3): 95.86±14.17 %WT
- EC50 (Gi signaling, SSTR2 P220(5.50)A, n=3, read-out: EC50): 3.37 ± 1.32 nM
- Emax (Gi signaling, SSTR2 P286ECL3A, n=3): 102.40±5.34 %WT
- EC50 (Gi signaling, SSTR2 P286ECL3A, n=3, read-out: EC50): 0.62 ± 1.18 nM
- Emax (Gi signaling, SSTR2 Q102(2.63)A, n=3): 71.48±1.31 %WT
- EC50 (Gi signaling, SSTR2 Q102(2.63)A, n=3, read-out: EC50): 66.8 ± 2.72 nM
- Emax (Gi signaling, SSTR2 Q126(3.36)A, detected at 10 μM, n=3): 21.88±1.91 %WT
- Emax (Gi signaling, SSTR2 S279(6.58)A, n=3): 101.70±5.61 %WT
- EC50 (Gi signaling, SSTR2 S279(6.58)A, n=3, read-out: EC50): 1.17 ± 1.01 nM
- Emax (Gi signaling, SSTR2 S285ECL3A, n=3): 87.52±6.00 %WT
- EC50 (Gi signaling, SSTR2 S285ECL3A, n=3, read-out: EC50): 0.69 ± 1.18 nM
- Emax (Gi signaling, SSTR2 T194(45.51)A, n=3): 91.51±3.38 %WT
- EC50 (Gi signaling, SSTR2 T194(45.51)A, n=3, read-out: EC50): 48.5 ± 2.29 nM
- Emax (Gi signaling, SSTR2 T287ECL3A, n=3): 98.50±5.26 %WT
- EC50 (Gi signaling, SSTR2 T287ECL3A, n=3, read-out: EC50): 0.6 nM
- Emax (Gi signaling, SSTR2 V103(2.64)A, n=3): 90.80±3.48 %WT
- EC50 (Gi signaling, SSTR2 V103(2.64)A, n=3, read-out: EC50): 7.66 ± 2.51 nM
- Emax (Gi signaling, SSTR2 W188ECL3A, n=3): 102.40±5.12 %WT
- EC50 (Gi signaling, SSTR2 W188ECL3A, n=3, read-out: EC50): 0.32 nM
- Emax (Gi signaling, SSTR2 W269(6.48)A, n=3): 99.58±2.56 %WT
- EC50 (Gi signaling, SSTR2 W269(6.48)A, n=3, read-out: EC50): 0.89 ± 2.24 nM
- Emax (Gi signaling, SSTR2 Y50(1.39)A, n=3): 104.70±0.48 %WT
- EC50 (Gi signaling, SSTR2 Y50(1.39)A, n=3, read-out: EC50): 0.46 nM
- Emax (Gi signaling, SSTR2 Y205(5.35)A, n=3): 112.90±25.77 %WT
- EC50 (Gi signaling, SSTR2 Y205(5.35)A, n=3, read-out: EC50): 0.92 nM
- Emax (Gi signaling, SSTR2 Y302(7.43)A, n=3): 79.09±10.74 %WT
- EC50 (Gi signaling, SSTR2 Y302(7.43)A, n=3, read-out: EC50): 79 ± 2.7 nM
- Bottom (best-fit value) (I284A-1, run 1): 8.872
- LogEC50 (best-fit value) (I284A-1, run 1): -8.868
- Span (best-fit value) (I284A-1, run 1): 107.4
